Measured values published in patent publication US10226044B2, “Agricultural and horticultural composition and method for cultivating plant” (AJINOMOTO CO., INC., priority 2014, dated 2019).

Experiments:
[1] = system: cherry tomato (Suncherry Pure); assay: Sugar content and acidity analysis of tomato fruit juice; assay type: in vivo; details: 10 mM sprinkled once a week
Protocol: After the plants of four root clumps uniformly grew, and flower buds began to appear, water (Con.), 10 mM L-isoleucine aqueous solution (Ile), or 10 mM proline aqueous solution (Pro) was sprinkled on the whole plants once a week. The sprinkled volume was adjusted in accordance with the growth of the plants, and it was 15 to 30 mL per one root clump.
Mature tomato fruit were taken from cherry tomato plants of each experimental group in the same manner as described in iii) above, and fruit juice was pressed out from each fruit. Glucose content, fructose content, and acidity of each fruit juice extract were analyzed. Analysis of glucose and fructose was performed for a 20-fold diluted solution of fruit juice by using a food analysis reagent kit, F-Kit (Saccharose (Sucrose)/D-Glucose/D-Fructose Kit (Roche)) and DU800 Spectrophotometer (Beckman Coulter) according to the manuals of the kit and instrument. Acidity analysis was performed by using a pocket acidity meter (PAL-AC1, ATAGO).

[2] = system: tomato fruit (Suncherry Pure); assay: Coloring and carotenoid content of harvested immature tomato fruit sprinkled with Ile; assay type: in vivo
Protocol: Then, the beakers were closed with plastic wrap, and left for 5 hours; then the wrap was removed, and the fruit were left as they were. The test was performed at room temperature, and the sprinkling of water and Ile solution was performed twice in total at an interval of one week. […] The tomato fruit of which seeds were removed were frozen with liquid nitrogen, and ground in a mortar. […] The extraction mixture was centrifuged for 5 minutes (8000 rpm), and the chloroform layer as the lower layer was transferred to a new tube. Chloroform (0.5 mL) was added again to the former tube, extraction was performed in the same manner, and the chloroform layer was fully taken out, and transferred to the latter tube containing the aforementioned chloroform extract. Then, chloroform was evaporated from the obtained extract by using a centrifugal evaporator. Then, a sample solution was prepared by adding 0.5 mL of chloroform to the residue to dissolve it, and carotenoids contained in the sample solution were analyzed. For the measurement of carotenoids, the extraction sample was diluted 100 times with chloroform, and absorbance thereof was measured at the extinction wavelength of carotenoids (480 nm) by using DU800 Spectrophotometer (Beckman Coulter).

[3] = system: cherry tomato (Suncherry Pure); assay type: in vivo; details: 10 mM sprinkled once a week
Protocol: Three seeds of cherry tomato (Suncherry Pure, Tokita Seed) were shown in compost contained in a slit pot, and cultivated in the same manner as described in Example 1, provided that the cultivation was performed in a greenhouse as in Example 2. The compost and application of fertilizer were the same or performed in the same manner as those described in Example 1. One month after the sowing, each seedling was permanently planted in a 9.0-cm long pot (top diameter 9 cm, height 20 cm, bottom diameter 6.4 cm), and cultivated until harvest. As for application of fertilizer, a 200-fold diluted solution of Vegetable Life A (Otsuka Chemical) was additionally applied as a fertilizer by irrigation in a volume of 100 mL per one root clump (pot) every two days from one month after the sowing to the harvest. After the plants of four root clumps uniformly grew, and flower buds began to appear, water (Con.), 10 mM L-isoleucine aqueous solution (Ile), or 10 mM proline aqueous solution (Pro) was sprinkled on the whole plants once a week. The sprinkled volume was adjusted in accordance with the growth of the plants, and it was 15 to 30 mL per one root clump. Then, ripening of fruit, number of fruit, amino acid content of fruit juice, sugar content and acidity of fruit juice, and antioxidant capacity of fruit juice were investigated for each root clump.

[4] = system: grape (Cabernet Sauvignon); assay: Anthocyanin content of pericarp of grape bunches sprinkled with isoleucine; assay type: in vivo; details: 10 mM isoleucine + 0.1% Applauch BI, 6.25 mL per bunch; Cabernet Sauvignon after start of veraison
Protocol: For the test, Cabernet Sauvignon plants that had been cultivated in a test cultivation field and had begun veraison were used. Eight bunches of fruit of the grape were collected from each of two root clumps, i.e., total 16 bunches of fruit were collected, and 6.25 mL per bunch of 0.1% Applauch BI (Kao, control), 1 g/L of abscisic acid (ABA)+0.1% Applauch BI (positive control), or 10 mM isoleucine+0.1% Applauch BI were sprinkled on them. The samples were collected 4 times, and they were collected from 4 bunches for each time. Anthocyanin contained in pericarp was extracted with a mixed solution of water and acetone (1:2) from pericarp, and anthocyanin content was measured in the same manner as described above.

[5] = system: Apples (variety, Tsugaru); assay: Anthocyanin content of pericarp of harvested apples immersed in Ile solutions; assay type: in vivo, apple; details: immersed 15 minutes in Ile solutions (1, 5, 10 mM) + 0.1% Applauch BI; 10th and 15th days after the treatment; compared to control group
Protocol: Apples (variety, Tsugaru) ready to mature (before coloring) were harvested, washed with tap water and then with distilled water, and immersed into water (control) and isoleucine (Ile) aqueous solutions of various concentrations for 15 minutes. To each treatment solution, 0.1% Applauch BI (Kao) was added. The treatment groups consisted of the following groups.
After the treatment, the apples were air-dried, and left standing in an incubator. The conditions consisted of constant temperature of 20° C., lighting condition of 120 μM/m^2/s obtained with 9 of 40 W fluorescent lamps, and daylength conditions of 16 hours of light period and 8 hours of dark period per day.
Pericarp color of the apples was evaluated by measuring anthocyanin content. Pericarp (0.5 g) collected from an apple of each treatment group was immersed in 5 mL of 2% formic acid at 4° C. for 24 hours to extract anthocyanin. Anthocyanin contained in the extract was analyzed by liquid chromatography. Since most part of anthocyanin of apple consists of cyanidin galactosides, anthocyanin concentration was calculated as cyanidin galactoside concentration.

[6] = system: LOX, JAR1, PI and MYC2 genes; assay: Investigation of isoleucine concentration for sprinkling (II): gene expression; assay type: in vivo, tomato (Caddy); details: 50 mM Ile, 3 mL on leaf surfaces (0.01, 0.1, 50, 100 mM tested)
Protocol: Tomato plants (variety: Caddy, Tokita Seed) were cultivated in a biotron room in the same manner as described in Example 1. Three weeks after sowing, 3 mL of water, or a 0.01 mM, 0.1 mM, 50 mM, or 100 mM isoleucine aqueous solution (Ile) was sprinkled on leaf surfaces of each plant, sampling was performed from the second foliage leaves, and expression of LOX, JAR1, PI and MYC2 genes were analyzed in the same manner as described in Example

Compound: CC[C@H](C)[C@H](N)C(=O)O [Ile, L-isoleucine]
- glucose content and fructose content of the fruit, comparison of groups [1]: almost the same as those of the control
- Acidity ([1]; fruit juice of mature fruit): 0.46%
- Fructose ([1]; fruit juice of mature fruit): 13.3 g/L
- Glucose ([1]; fruit juice of mature fruit): 13.3 g/L
- color of harvested fruit around the 27th day ([2]; 10 mM Ile, 1 mL on six immature fruit, twice at an interval of one week, room temperature, water control still green): began to turn color
- color of harvested fruit around the 34th day ([2]; 10 mM Ile, sprinkled twice, water control still half-mature orange): turned color to a fully mature red
- carotenoid content of the tomato fruit ([2]; around the 27th day, absorbance at 480 nm, compared to fruit treated with water): higher
- final crop yield: number of fruit produced, larger as compared to water (Con.) [3]: 16%
- number of tomatoes that had changed color [3]: larger in the order of the tomato plants sprinkled with Ile, Pro, and water (Con.)
- anthocyanin content of pericarp [4]: increases
- anthocyanin content of apple pericarp [5]: higher
- Expression of the LOX, JAR1, PI and MYC2 genes [6]: promoted
